Assay in all cases: DTP human tumour cell line panel, 48 h
Assay [1] relates to PC-3 prostate.
Assay [2] has as its system T-47D breast.
Assay [3] has as its system UACC-62 melanoma.
Assay [4] has as its system DU-145 prostate.
The subject of assay [5] is NCI-H23 lung.
The test system of assay [6] is RXF 393 renal.
For assay [7], the system named is SK-MEL-28 melanoma.
The test system of assay [8] is HCT-15 colon.
The subject of assay [9] is SR leukemia.
For assay [10], the system named is MOLT-4 leukemia.

SMILES strings stand for the structures.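 Compound exposure: 48 hours, 5 concentrations, 96-well plates. Here, GI50 denotes the concentration required for 50% inhibition of growth. TGI: total growth inhibition.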

Take `COc1cc(NC(N)=NCCC(C)(C)Oc2ccc(C(F)(F)F)cc2)ncc1C#N`: the GI50 is 1.42 µM in [1]; 1.56 µM in assay [2]; 1.78 µM in [3]; 1.72 µM in assay [4]; 1.43 µM in [5]; 1.68 µM in assay [6]. The GI50 was 1.83 µM in assay [7] and 1.65 µM in assay [8]. Besides, the TGI in [1] worked out at 2.82 µM; in [2], 3.29 µM; in assay [3], 3.18 µM; in assay [4], 3.12 µM; in [5], 2.81 µM; in [6], 3.11 µM. The results for the total growth inhibition concentration (TGI) in [7] and in assay [8] were 3.23 µM and 3.07 µM, respectively.
Take `CC(C)=CCc1c(OC(=O)c2c(C)cc(O)cc2O)cc(CO)c(CO)c1O`: the TGI in [1] is 36.8 µM; in [2] it was 23.8 µM; in assay [3], 29.6 µM; in assay [9] it was 94.5 µM; in assay [10] it was 63 µM; in assay [4], 70.4 µM. Also, the TGI in assay [5] turned out to be 33 µM; in assay [7] it was 46.7 µM; in assay [8], 34.6 µM.
With `Cc1ccc(C)c2c1C(O)(C#Cc1ccccc1)c1ccccc1C2(O)C#Cc1ccccc1` (centres undefined), the GI50 in [1] is 2.42 µM; in [2], 2 µM; in assay [3] it was 2.84 µM; in assay [9], 2.52 µM; in assay [10] it was 2.5 µM; in assay [4], 3.32 µM. Besides, the GI50 in assay [5] is 3.23 µM; in assay [7] it was 3.75 µM; in assay [8] it was 1.03 µM. For the same molecule, the concentration for total growth inhibition (TGI) is > 23.7 µM in assay [1]; > 27.5 µM in [2]; > 100 µM in assay [3]; > 100 µM in assay [9]; > 23.3 µM in assay [10]; > 100 µM in assay [4]. The results for the total growth inhibition concentration (TGI) in assay [5], in assay [7] and in [8] were > 29.5 µM, > 88.5 µM and > 100 µM, respectively.
`Cc1ccc(-c2csc(/N=C3\C(=O)Nc4ccccc43)n2)cc1`: the GI50 in assay [1] is 1.08 µM; in [2], 1.36 µM; in assay [3], 1.37 µM; in assay [4], 2.16 µM; in assay [5], 1.46 µM; in assay [6], 1.49 µM. Moreover, the GI50 in assay [7] is 1.47 µM; in assay [8], 2.37 µM. Further, the TGI in [1] stood at 2.82 µM; in assay [2], 4.46 µM; in assay [3] it was 2.83 µM; in [4], 5.99 µM; in assay [5] it was 2.98 µM; in assay [6], 3.16 µM. Also, the TGI in assay [7] was found to be 3.03 µM; in [8], 10.4 µM.
For `COc1cc(OC)cc(N(CCNC(C)C)c2ccc3ncc(-c4cnn(C)c4)nc3c2)c1`, the GI50 in [1] is 6.54 µM; in assay [2], 12.7 µM; in [3] it was 6.76 µM; in assay [10], 2.99 µM; in [4], 5.29 µM; in assay [5], 6.9 µM. Besides, the GI50 in assay [6] is 1.2 µM; in assay [7], 10.9 µM; in [8] it was 3.34 µM. Also, the concentration for total growth inhibition (TGI) came out at 23.2 µM in assay [1]; 30.3 µM in [2]; 21.5 µM in [3]; 12 µM in assay [10]; 17.9 µM in assay [4]; 20.9 µM in [5]. The concentration for total growth inhibition (TGI) was found to be 5.16 µM in assay [6], 24.3 µM in assay [7] and 13.5 µM in assay [8].
For the molecule `Cc1ccc(S(=O)(=O)NC(=O)C2C(=O)CC3(CCCCC3)CC2=O)cc1`, the TGI is 81.3 µM in assay [1]; > 100 µM in assay [2]; 83.8 µM in assay [3]; > 100 µM in assay [10]; > 100 µM in assay [4]; > 100 µM in [5]. The figures for the TGI in assay [6] and in [8] were > 100 µM and 62.4 µM, respectively.
Take `COc1ccc2c(c1)C(=O)c1c-2n(CCCN=[N+]=[N-])c(=O)c2cc(OC)c(OC)cc12`: the GI50 in [1] is 50 µM; in assay [2], > 100 µM; in [3] it was 21 µM; in assay [10], 10.6 µM; in [4], 26.6 µM; in assay [7], > 100 µM. Moreover, in assay [8], the GI50 was > 100 µM. For the same molecule, the TGI in assay [1] is > 100 µM; in [2], > 100 µM; in assay [3], > 100 µM; in assay [10] it was 23.5 µM; in [4], > 100 µM; in assay [7], > 100 µM. For the same molecule, the TGI in assay [8] was > 100 µM.
On to `C#Cc1cccc(N2C(=O)CCC2=O)c1`, for which the TGI turned out to be 28.6 µM in assay [1]; 56.8 µM in [2]; 33.8 µM in assay [3]; 4.74 µM in assay [9]; 23 µM in assay [10]; 28.3 µM in assay [4]. The TGI in assay [5] came out at 24.5 µM; in assay [7] it was 32.3 µM; in assay [8], 50 µM.
For `Nc1ccccc1C(=O)CC1OC(=O)c2ccccc21` (centres undefined), the total growth inhibition concentration (TGI) in assay [1], in assay [2], in assay [3], in assay [9], in [10] and in assay [4] was > 100 µM each time. In addition, the TGI in [7] and in assay [8] was > 100 µM in each case.
With `CCC[CH2][Sn]([CH2]CCC)([CH2]CCC)[O]c1ccc(Cl)cc1Cl`, the GI50 is 0.15 µM in [1]; 0.128 µM in assay [2]; 0.162 µM in [3]; 0.165 µM in assay [10]; 0.13 µM in [4]; 0.109 µM in assay [5]. Also, the concentration for 50% growth inhibition (GI50) was 0.142 µM in assay [6], 0.162 µM in assay [7] and 0.156 µM in [8]. The total growth inhibition concentration (TGI) in assay [1] was determined as 0.443 µM; in assay [2], 0.307 µM; in assay [3] it was 0.357 µM; in [10], 2.77 µM; in assay [4] it was 0.271 µM; in [5], 0.321 µM. Further, the TGI in assay [6] is 0.296 µM; in assay [7], 0.302 µM; in assay [8], 0.333 µM.

Values taken from PubChem BioAssay (NCI).
